Our source for the melting point values is a melting point compilation (Tetko et al.).

Structures are written as SMILES.

Consider `CCCCC(=O)OC1(C(=O)CO)C(C)CC2C3CCC4=CC(=O)C=CC4(C)C3(F)C(O)CC21C` (stereo not drawn), for which the melting point worked out at 184 °C. For the compound `OC1OCC(OCc2ccccc2)C(OCc2ccccc2)C1OCc1ccccc1` (stereo not drawn), the melting point was found to be 78 °C. To `NS(=O)(=O)c1cc(Cl)ccc1F` belongs 135 °C; to `CC12CCC(=O)C=C1CCC1C3CCC4(CCC(=O)O4)C3CCC12C` (stereo not drawn), 158 °C. Turning to `N#Cc1ccccc1OC1CCOCC1`, the melting point fell in the range of 51 to 55 °C. `OC1OC2COC(c3ccccc3)OC2C(O)C1O` (stereo not drawn) showed a melting point of 173 to 174 °C. To `COc1cc(Br)c(C=O)cc1OC` belongs 150 °C; to `O=C(O)c1cccnc1N1CCOCC1`, 129 to 133 °C; to `FC(F)(F)C(F)(F)C(F)(F)C(F)(F)I`, -68 °C.

The compound `CCOC(=O)c1cc2cccc(OC)c2o1` had a melting point of 85 to 90 °C. In the case of `CC(=O)c1nn2c(nc(=O)c3ccccc32)s1` it was 199 °C; in that of `ClCc1noc(-c2ccccc2)n1`, 64 °C; in that of `Nc1cc(Br)cnc1N`, 160 to 165 °C. In the case of `CC(=O)C(C=N)c1ccccc1` (stereo not drawn) it was 96 °C; in that of `COC(=O)NNC(=O)OC`, 129 to 131 °C; in that of `CCCCc1nc(CO)c(Cl)[nH]1`, 150 to 152 °C. In the case of `O=C1c2ccccc2C(=O)C1c1ccc(F)cc1` it was 120 °C; in that of `O=[N+]([O-])c1cc(CCBr)c([N+](=O)[O-])cc1CCBr`, 123 °C; in that of `CC(C)OC(N)=O`, 93 °C. `Oc1ncc(O)c(O)n1` gave a melting point of 330 °C. To `CCC1=CCCC1=NNc1ccc([N+](=O)[O-])cc1[N+](=O)[O-]` belongs 220 °C; to `CC(C)C[C@H](NC(=O)CN)C(=O)O`, 233 to 235 °C; to `COC(=O)c1csc(S(=O)(=O)Cl)c1OC`, 93 to 96 °C. In the case of `O=C1C2ON(c3ccccc3)C(c3ccccc3)C2C(=O)N1c1ccccc1` (stereo not drawn) it was 151 to 152 °C; in that of `C=CCc1ccc(OC)c(OC)c1`, 70 °C; in that of `CC(=O)Oc1ccccc1C1NC(=O)NC(C)=C1C(=O)OCc1ccccc1` (stereo not drawn), 202 to 203 °C.

Turning to `O=C1OC(=O)c2cc([N+](=O)[O-])ccc21`, the melting point stood at 115 °C.

The compound `CCC(C)OC(=O)C1=C(C)NC(=O)NC1c1ccco1` (stereo not drawn) came in with a melting point of 185 °C. On to `CC(=O)OC[C@@H](OC(C)=O)[C@H](OC(C)=O)[C@H](OC(C)=O)[C@@H](OC(C)=O)c1nnn[nH]1`, for which the melting point turned out to be 109 °C. As for `O=C(c1ccc(Br)cc1)c1noc(-c2ccc(Cl)cc2)c1S(=O)(=O)c1ccccc1`, the melting point was 145 °C. `Nc1ccc(C=Cc2cccc(N)c2)cc1` showed a melting point of 109 °C. In the case of `O=C(N=c1sc(C(=O)c2cccs2)nn1-c1ccccc1[N+](=O)[O-])c1ccccc1` it was 239 °C. In turn, `Cc1nn(C)c(NC(=O)CCl)c1Br` came in with a melting point of 151 to 153 °C.

Turning to `CCCN(CCC)c1c([N+](=O)[O-])cc(S(C)(=O)=O)cc1[N+](=O)[O-]`, the melting point was determined as 150 °C. Take `c1ccc2c(c1)OCCOCCOCCOCCOc1ccccc1OCCOCCO2`: the melting point lay within 59 to 63 °C. To `Clc1ccc(N=Nc2ccccc2)cc1` belongs 88 °C.

`CCN(CCO)c1ccc(N=Nc2ccc([N+](=O)[O-])cc2Cl)cc1` came in with a melting point of 133 °C. In the case of `CN1CC(c2ccccc2)(c2ccccc2)C(=O)c2c(cc(-c3ccccc3)c3ccccc23)C1=O` it was 265 °C; in that of `O=C(C=Nc1ccccc1)c1cc(C(=O)C=Nc2ccccc2)cc(C(=O)C=Nc2ccccc2)c1`, 340 °C. The compound `CC12CCc3c(ccc4cc(O)ccc34)C1CCC2=O` (stereo not drawn) returned a melting point of 258 °C.

`C[Si](C)(CCCC(=O)O)O[Si](C)(C)CCCC(=O)O` registered a melting point of 47 °C. In the case of `Brc1ccc2[nH]cnc2c1` it was 130 to 131 °C. Compound `Cc1cc(C)c([N+](=O)[O-])c(C)c1Br` returned a melting point of 64 to 66 °C. To `Cc1ccc[nH]1` belongs -35.6 °C; to `CCn1cc(C(=O)O)c(=O)c2cnc(N3CCCC3)nc21`, 315 °C; to `CC12CCC3C(C(=O)CC4CC(O)(C(Cl)(Cl)Cl)CCC43C)C1CCC2=O` (stereo not drawn), 248 to 254 °C. To `Sc1nccc(-c2ccc(Cl)cc2)n1` belongs 210 to 214 °C; to `O=C(NCOC(=O)c1ccc(OCNC(=O)c2ccccc2)cc1)c1ccccc1`, 176 to 178 °C; to `O=C1CCCCCCCCCCC(=O)OCCO1`, 18 °C.

`COc1cccc2oc(-c3ccccc3)cc(=O)c12`: the melting point is 130 °C. To `NC(CSc1ccccn1)=NO` belongs 100 °C; to `CC(=O)OC1Cc2ccccc21` (stereo not drawn), 31 °C; to `Nc1nc(Cl)c2nc[nH]c2n1`, 300 °C.

`CC(C)(C)c1ccc(C2CCC3(CC2)Cc2ccc(C(=O)Nc4ccccc4OCCCC(=O)O)cc2C3)cc1` (stereo not drawn) showed a melting point of 150 °C. To `CC(Oc1ccc2ccccc2c1)C(=O)Nc1ccccc1` (stereo not drawn) belongs 128 °C. Compound `CCOP(=O)(OCC)ON1C(=O)c2cccc3cccc(c23)C1=O` gave a melting point of 177 °C. Consider `O=c1[nH]nc(-c2ccccc2)c2ccccc12`, for which the melting point came to 240 °C.

Take `NN1C(=O)c2cccc3cccc(c23)C1=O`: the melting point lay in the range of 265 to 266 °C. Turning to `CC1CC2C3CC(F)C4=CC(=O)C=CC4(C)C3(F)C(O)CC2(C)C1C(=O)CO` (stereo not drawn), the melting point was 242 °C.

Compound `O=C(O)C=Cc1cc([N+](=O)[O-])ccc1Sc1ccc(Cl)cc1` yielded a melting point of 212 to 215 °C. In the case of `CC(=O)C1(O)CCC2(C)C(CC(=O)C3C4CCC(=O)C4(C)CCC32)C1` (stereo not drawn) it was 185 to 191 °C; in that of `N#C/C(=C\c1ccccc1O)c1nc2ccccc2s1`, 188 °C. `CC1CC(OC(=O)C(O)c2ccccc2)CC(C)(C)N1C` (stereo not drawn) displayed a melting point of 113 °C. For the compound `O=C(/C=C/c1ccccc1)NNc1ccccc1`, the melting point was 187 °C. To `c1ccc2cc3c4ccccc4c4ccccc4c3cc2c1` belongs 206 °C; to `FC(F)(F)C(I)(C(F)(F)F)C(F)(F)F`, 60 °C; to `Nc1cc(-c2ccccc2)ccc1O`, 200 °C. Turning to `NNc1cc(C(F)(F)F)cc(C(F)(F)F)c1`, the melting point is 82 °C. `Cc1[nH]c(C)c(C)c1C` displayed a melting point of 111 °C. To `COc1ccc(NN=C2C(=O)OC(C)(C)OC2=O)cc1` belongs 128 °C. For `O=P(O)(O)Cc1ccccc1`, the melting point came to 169 °C. Take `Cc1nc(-c2ccc(N=C=O)cc2)cs1`: the melting point is 80 to 81 °C.

For `CCOC(=O)c1c[nH]c2c(c1=O)CNN2C`, the melting point was 138 to 140 °C.

A word on the melting point: it is the temperature, or range, at which the solid turns liquid.
